# From patent publication US12545637B2, “Extrahepatic targeted cationic lipid compound with high efficiency and low toxicity and its composition” (BEIJING YOUCARE KECHUANG PHARMACEUTICAL TECHNOLOGY CO., LTD., priority 2023, dated 2026)
# How the values were obtained:
# [1] = test system: 293T cells; test: Cell transfection test of LNP formulation of eGFP-mRNA (optimization of preparation conditions); type: cell-based; details: for transfection efficiency at different molar ratios of polymer-conjugated lipid DMG-PEG2000 to carrier: 0.5% to 15%; for transfection effect at different molar ratios of cationic lipid, neutral lipid, structured lipid and polymer-conjugated lipid: 75:5:15:5 to 25:5:65:5
# [2] = test system: female BALB/C mice; test: In vivo imaging in mice of Fluc-mRNA LNP formulations (mRNA expression and duration); details: for average radiation intensity, 6 h / average radiation intensity, 24 h / average radiation intensity, 48 h / average radiation intensity, 7 d: Fluc-mRNA LNP intramuscular; for average radiation intensity, 6 h: 6 h after administration; for average radiation intensity, 24 h: 24 h after administration; for average radiation intensity, 48 h: 48 h after administration; for average radiation intensity, 7 d: 7 d after administration
# Outline: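 Female BALB/C mice (4-6 weeks, 17-19 g) received LNP carrying […] Fluc-mRNA intramuscularly. At 6h, 24 h, 48h and 7d, fluorescent imaging substrate was given intraperitoneally and after 5 minutes average radiance, as a measure of expressed protein, was imaged on an IVIS Spectrum system.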
# [3] = test system: 293T cells; test: Fluorescent detection of Fluc-mRNA (cell transfection efficiency of LNP formulations); type: cell-based; details: for Relative light unit (RLU): LNP with 0.3 μg Fluc-mRNA, 96-well plate, 24 hours; for cell transfection efficiency, times that of YK-415: ratio vs YK-415; for cell transfection efficiency, times that of YK-417: ratio vs YK-417; for cell transfection efficiency, times that of YK-418: ratio vs YK-418; for cell transfection efficiency, times that of YK-424: ratio vs YK-424; for RLU value, times that of compound 21: ratio vs compound 21; for RLU value, times that of compound 23: ratio vs compound 23
# [4] = Particle size and polydispersity index (PDI) of lipid nanoparticles by dynamic light scattering; type: physicochemical; details: for PDI: LNP formulation of the cationic lipid, 25° C.; for Particle size: LNP formulation of the cationic lipid/DSPC/cholesterol/DMG-PEG2000 49:10:39.5:1.5, 25° C.
# Procedure: The particle size and polydispersity index (PDI) were determined by dynamic light scattering using Malvern laser particle size analyzer.
# 10 μL of the liposome solution was weighed, diluted to 1 mL with RNase-free deionized water, and added to the sample pool. Each sample was measured in triplicate. The measurement conditions were: […] scattering angle, and 25° C.
# [5] = test system: 293T cells; test: Fluorescent detection of Fluc-mRNA (cell transfection efficiency of LNP formulations); type: cell-based; details: for RLU value, times that of ALC-0315: ratio vs ALC-0315; for RLU value, times that of HHMA: ratio vs HHMA; for RLU value, times that of Lipofectamine 3000: ratio vs Lipofectamine 3000; for RLU value, times that of YK-009: ratio vs YK-009; for RLU value, times that of YK-405: ratio vs YK-405; for RLU value, times that of YK-406: ratio vs YK-406; for RLU value, times that of YK-408: ratio vs YK-408; for RLU value, times that of YK-409: ratio vs YK-409; for RLU value, times that of YK-410: ratio vs YK-410; for cell transfection efficiency, times that of YK-412: ratio vs YK-412; for cell transfection efficiency, times that of YK-413: ratio vs YK-413; for cell transfection efficiency, times that of YK-414: ratio vs YK-414; for cell transfection efficiency, times that of YK-416: ratio vs YK-416; for cell transfection efficiency, times that of YK-419: ratio vs YK-419; for cell transfection efficiency, times that of YK-420: ratio vs YK-420; for cell transfection efficiency, times that of YK-421: ratio vs YK-421
smiles,measurement,setting,value
"CCCCCCCCC(CCCCCCCC)COC(=O)CCCCCN(CCCO)CCN(CCCO)CCCCCC(=O)OCC(CCCCCCCC)CCCCCCCC [YK-422, di(2-octyldecyl) 6,6′-(ethane-1,2-diyl-bis((3-hydroxypropyl)azanediyl))dihexanoate]",transfection efficiency at different molar ratios of polymer-conjugated lipid DMG-PEG2000 to carrier,[1],same results
same,"transfection effect at different molar ratios of cationic lipid, neutral lipid, structured lipid and polymer-conjugated lipid",[1],same results
same,"average radiation intensity, times that of ALC-0315",[2]; 6 h,1.58
same,"average radiation intensity, times that of HHMA",[2]; 6 h,2.01
same,"average radiation intensity, times that of SM-102",[2]; 6 h,1.92
same,"average radiation intensity, times that of compound 21",[2]; 6 h,2.21
same,"average radiation intensity, times that of compound 23",[2]; 6 h,2.29
same,"expression amount in mice, times that of YK-415",[2]; 6 h,11.28
same,"expression amount in mice, times that of YK-417",[2]; 6 h,21.98
same,"mRNA expression in mice, times that of YK-411",[2]; 6 h,227.25
same,"average radiation intensity, times that of ALC-0315",[2]; 24 h,3.73
same,"average radiation intensity, times that of HHMA",[2]; 24 h,5.90
same,"average radiation intensity, times that of SM-102",[2]; 24 h,5.74
same,"average radiation intensity, times that of compound 21",[2]; 24 h,6.38
same,"average radiation intensity, times that of compound 23",[2]; 24 h,7.01
same,"expression amount in mice, times that of YK-415",[2]; 24 h,10.98
same,"expression amount in mice, times that of YK-417",[2]; 24 h,35.43
same,"mRNA expression in mice, times that of YK-411",[2]; 24 h,350.21
same,"average radiation intensity, times that of ALC-0315",[2]; 48 h,6.76
same,"average radiation intensity, times that of HHMA",[2]; 48 h,8.14
same,"average radiation intensity, times that of SM-102",[2]; 48 h,8.26
same,"average radiation intensity, times that of compound 21",[2]; 48 h,8.60
same,"average radiation intensity, times that of compound 23",[2]; 48 h,8.24
same,"expression amount in mice, times that of YK-415",[2]; 48 h,17.19
same,"expression amount in mice, times that of YK-417",[2]; 48 h,38.52
same,"mRNA expression in mice, times that of YK-411",[2]; 48 h,278.33
same,"average radiation intensity, times that of ALC-0315",[2]; 7 d,1.35
same,"average radiation intensity, times that of HHMA",[2]; 7 d,1.59
same,"average radiation intensity, times that of SM-102",[2]; 7 d,1.41
same,"average radiation intensity, times that of compound 21",[2]; 7 d,1.49
same,"average radiation intensity, times that of compound 23",[2]; 7 d,1.55
same,"expression amount in mice, times that of YK-415",[2]; 7 d,2.34
same,"expression amount in mice, times that of YK-417",[2]; 7 d,4.15
same,"mRNA expression in mice, times that of YK-411",[2]; 7 d,19.74
same,"average radiation intensity, 6 h",[2],1329410
same,"average radiation intensity, 24 h",[2],708120
same,"average radiation intensity, 48 h",[2],271372
same,"average radiation intensity, 7 d",[2],9476
same,Relative light unit (RLU),[3],6432971 RLU
same,"cell transfection efficiency, times that of YK-415",[3],21.59
same,"cell transfection efficiency, times that of YK-417",[3],54.85
same,"cell transfection efficiency, times that of YK-418",[3],57.82
same,"cell transfection efficiency, times that of YK-424",[3],2.23
same,"RLU value, times that of compound 21",[3],4.26
same,"RLU value, times that of compound 23",[3],4.59
same,PDI,[4],13.9%
same,Particle size,[4],146 nm
same,"RLU value, times that of ALC-0315",[5],2.94
same,"RLU value, times that of HHMA",[5],3.09
same,"RLU value, times that of Lipofectamine 3000",[5],5.36
same,"RLU value, times that of YK-009",[5],1.25
same,"RLU value, times that of YK-405",[5],2.01
same,"RLU value, times that of YK-406",[5],82.21
same,"RLU value, times that of YK-408",[5],4.36
same,"RLU value, times that of YK-409",[5],9.60
same,"RLU value, times that of YK-410",[5],15.77
same,"cell transfection efficiency, times that of YK-412",[5],1.91
same,"cell transfection efficiency, times that of YK-413",[5],4.67
same,"cell transfection efficiency, times that of YK-414",[5],14.49
same,"cell transfection efficiency, times that of YK-416",[5],1.62
same,"cell transfection efficiency, times that of YK-419",[5],2.03
same,"cell transfection efficiency, times that of YK-420",[5],1.60
same,"cell transfection efficiency, times that of YK-421",[5],13.79
"CCCCCCCCC(CCCCCCCC)OC(=O)CCCCCN(CCO)CCN(CCO)CCCCCC(=O)OC(CCCCCCCC)CCCCCCCC [YK-401, di(heptadecan-9-yl) 6,6′-(ethane-1,2-diyl-bis((2-hydroxyethyl)azanediyl))dihexanoate]",transfection efficiency at different molar ratios of polymer-conjugated lipid DMG-PEG2000 to carrier,[1],same results
same,"transfection effect at different molar ratios of cationic lipid, neutral lipid, structured lipid and polymer-conjugated lipid",[1],same results
same,"average radiation intensity, times that of ALC-0315",[2]; 6 h,1.85
same,"average radiation intensity, times that of HHMA",[2]; 6 h,2.36
same,"average radiation intensity, times that of SM-102",[2]; 6 h,2.25
same,"average radiation intensity, times that of compound 21",[2]; 6 h,2.59
same,"average radiation intensity, times that of compound 23",[2]; 6 h,2.68
same,"expression amount in mice, times that of YK-415",[2]; 6 h,13.22
same,"expression amount in mice, times that of YK-417",[2]; 6 h,25.75
same,"mRNA expression in mice, times that of YK-411",[2]; 6 h,266.26
same,"average radiation intensity, times that of ALC-0315",[2]; 24 h,4.25
same,"average radiation intensity, times that of HHMA",[2]; 24 h,6.72
same,"average radiation intensity, times that of SM-102",[2]; 24 h,6.53
same,"average radiation intensity, times that of compound 21",[2]; 24 h,7.26
same,"average radiation intensity, times that of compound 23",[2]; 24 h,7.98
same,"expression amount in mice, times that of YK-415",[2]; 24 h,12.50
same,"expression amount in mice, times that of YK-417",[2]; 24 h,40.34
same,"mRNA expression in mice, times that of YK-411",[2]; 24 h,398.73
same,"average radiation intensity, times that of ALC-0315",[2]; 48 h,9.79
same,"average radiation intensity, times that of HHMA",[2]; 48 h,11.79
same,"average radiation intensity, times that of SM-102",[2]; 48 h,11.96
same,"average radiation intensity, times that of compound 21",[2]; 48 h,12.46
same,"average radiation intensity, times that of compound 23",[2]; 48 h,11.94
same,"expression amount in mice, times that of YK-415",[2]; 48 h,24.89
same,"expression amount in mice, times that of YK-417",[2]; 48 h,55.79
same,"mRNA expression in mice, times that of YK-411",[2]; 48 h,403.10
same,"average radiation intensity, times that of ALC-0315",[2]; 7 d,1.50
same,"average radiation intensity, times that of HHMA",[2]; 7 d,1.76
same,"average radiation intensity, times that of SM-102",[2]; 7 d,1.56
same,"average radiation intensity, times that of compound 21",[2]; 7 d,1.65
same,"average radiation intensity, times that of compound 23",[2]; 7 d,1.72
same,"expression amount in mice, times that of YK-415",[2]; 7 d,2.60
same,"expression amount in mice, times that of YK-417",[2]; 7 d,4.60
same,"mRNA expression in mice, times that of YK-411",[2]; 7 d,21.90
same,"average radiation intensity, 6 h",[2],1557640
same,"average radiation intensity, 24 h",[2],806240
same,"average radiation intensity, 48 h",[2],393020
same,"average radiation intensity, 7 d",[2],10512
same,Relative light unit (RLU),[3],5609550 RLU
same,"cell transfection efficiency, times that of YK-415",[3],18.82
same,"cell transfection efficiency, times that of YK-417",[3],47.83
same,"cell transfection efficiency, times that of YK-418",[3],50.42
same,"cell transfection efficiency, times that of YK-424",[3],1.95
same,"RLU value, times that of compound 21",[3],3.71
same,"RLU value, times that of compound 23",[3],4.00
same,PDI,[4],17.7%
same,Particle size,[4],152 nm
same,"RLU value, times that of ALC-0315",[5],2.56
same,"RLU value, times that of HHMA",[5],2.70
same,"RLU value, times that of Lipofectamine 3000",[5],4.67
same,"RLU value, times that of YK-009",[5],1.09
same,"RLU value, times that of YK-405",[5],1.75
same,"RLU value, times that of YK-406",[5],71.69
same,"RLU value, times that of YK-408",[5],3.81
same,"RLU value, times that of YK-409",[5],8.37
same,"RLU value, times that of YK-410",[5],13.75
same,"cell transfection efficiency, times that of YK-412",[5],1.66
same,"cell transfection efficiency, times that of YK-413",[5],4.07
same,"cell transfection efficiency, times that of YK-414",[5],12.63
same,"cell transfection efficiency, times that of YK-416",[5],1.41
same,"cell transfection efficiency, times that of YK-419",[5],1.77
same,"cell transfection efficiency, times that of YK-420",[5],1.40
same,"cell transfection efficiency, times that of YK-421",[5],12.02
